# Reference: ChEMBL document CHEMBL1158147, “Ultraviolet-mediated cytotoxic activity of phenylheptatriyne from Bidens pilosa L” (J Nat Prod, 1979)
# Active and inactive are the calls of the source. The calls are words filed in the database; no cut-off is given here.
# What was measured:
# [1] = system: Saccharomyces cerevisiae; test: Phototoxicity against Saccharomyces cerevisiae at 2.5 ug/disk after UV irradiation for 180 mins; type: functional, organism-based
# [2] = system: Bacillus subtilis; test: Phototoxicity against Bacillus subtilis at 5 ug/disk in dark; type: functional, organism-based
# [3] = system: Staphylococcus epidermidis; test: Phototoxicity against Staphylococcus albus at 5 ug/disk in dark; type: functional, organism-based
# [4] = system: Escherichia coli; test: Phototoxicity against Escherichia coli at 5 ug/disk in presence of cool-white fluorescent light; type: functional, organism-based
# [5] = system: Proteus mirabilis; test: Phototoxicity against Proteus mirabilis UBC 5 at 5 ug/disk in presence of long wave UV light; type: functional, organism-based
# [6] = system: Proteus mirabilis; test: Phototoxicity against Proteus mirabilis UBC 5 at 5 ug/disk in presence of cool-white fluorescent light; type: functional, organism-based
# [7] = system: Pseudomonas fluorescens; test: Phototoxicity against Pseudomonas fluorescens at 5 ug/disk in presence of cool-white fluorescent light; type: functional, organism-based
# [8] = system: Pseudomonas fluorescens; test: Phototoxicity against Pseudomonas fluorescens at 5 ug/disk in dark; type: functional, organism-based
# [9] = system: Candida albicans; test: Phototoxicity against Candida albicans at 5 ug/disk in presence of cool-white fluorescent light; type: functional, organism-based
# [10] = system: Rhodotorula mucilaginosa; test: Phototoxicity against Rhodotorula rubra Y96 at 5 ug/disk in presence of long wave UV light; type: functional, organism-based
# [11] = system: Rhodotorula mucilaginosa; test: Phototoxicity against Rhodotorula rubra Y96 at 5 ug/disk in dark; type: functional, organism-based
# [12] = system: Sporobolomyces; test: Phototoxicity against Sporobolomyces sp. Y138 at 5 ug/disk in presence of cool-white fluorescent light; type: functional, organism-based
# [13] = system: Sporobolomyces; test: Phototoxicity against Sporobolomyces sp. Y138 at 5 ug/disk in dark; type: functional, organism-based
# [14] = system: Torula; test: Phototoxicity against Torula sp. at 5 ug/disk in presence of cool-white fluorescent light; type: functional, organism-based
# [15] = system: Fusarium sp.; test: Phototoxicity against Fusarium sp. at 5 ug/disk in presence of long wave UV light; type: functional, organism-based
# [16] = system: Fusarium sp.; test: Phototoxicity against Fusarium sp. at 5 ug/disk in dark; type: functional, organism-based
# [17] = system: Microsporum canis; test: Phototoxicity against Microsporum canis at 5 ug/disk in presence of long wave UV light; type: functional, organism-based
# [18] = system: Nannizzia gypsea; test: Phototoxicity against Microsporum gypseum at 5 ug/disk in dark; type: functional, organism-based
# [19] = system: Trichophyton mentagrophytes; test: Phototoxicity against Trichophyton mentagrophytes at 5 ug/disk in dark; type: functional, organism-based
# [20] = system: Saccharomyces cerevisiae; test: Effect on Saccharomyces cerevisiae assessed as viable cell count at 10 ug/ml in petroleum ether after 1.33 Joules/cm'2 UV irradiation for 15 mins; type: functional
# [21] = system: Saccharomyces cerevisiae; test: Effect on Saccharomyces cerevisiae assessed as viable cell count at 10 ug/ml in petroleum ether in dark after 15 mins; type: functional
# [22] = system: Saccharomyces cerevisiae; test: Effect on Saccharomyces cerevisiae assessed as viable cell count at 10 ug/ml in petroleum ether in dark after 30 mins; type: functional
# [23] = Effect on human skin fibroblast cells assessed as viable cell count at 10 ug/ml in petroleum ether after 1.78 Joules/cm UV irradiation for 20 mins by trypan blue exclusion method; type: ADME, cell-based; details: read-out: Activity
# [24] = system: Candida albicans; test: Phototoxicity against Candida albicans at 2.5 ug/disk after UV irradiation for 15 mins; type: functional; details: light or radiation study, 0.25 h, read-out: IZ
# [25] = system: DNA; test: Photochemical activity against denatured calf thymus DNA at 10 ug in dark by hyperchromicity test; type: nucleic-acid assay; details: Bos taurus; further: unit not given here
# [26] = system: DNA; test: Photochemical activity against denatured calf thymus DNA at 10 ug in dark after 60 mins by hyperchromicity test; type: nucleic-acid assay; details: Bos taurus; further: unit not given here
# [27] = system: DNA; test: Photochemical activity against denatured calf thymus DNA at in dark after 180 mins by hyperchromicity test; type: nucleic-acid assay; details: Bos taurus
structure (smiles),measurement,setting,value
CC#CC#CC#Cc1ccccc1 [PHENYLHEPTATRIYNE],Activity,[1],inactive
same,Activity,[2],inactive
same,Activity,[3],inactive
same,Activity,[4],inactive
same,Activity,[5],Active
same,Activity,[6],inactive
same,Activity,[7],inactive
same,Activity,[8],inactive
same,Activity,[9],Active
same,Activity,[10],Active
same,Activity,[11],inactive
same,Activity,[12],Active
same,Activity,[13],inactive
same,Activity,[14],inactive
same,Activity,[15],Active
same,Activity,[16],inactive
same,Activity,[17],Active
same,Activity,[18],inactive
same,Activity,[19],inactive
same,Activity,[20],2.57
same,Activity,[21],24.2
same,Activity,[22],35.8
same,"viability at 20 min, 10 ug/ml",[23],95%
same,zone of inhibition at 2.5 µg/disc,[24],11 mm
same,Activity,[25],0.17
same,Activity,[26],0.18
same,Activity,[27],0.18
